Data published in patent US11590202B2, “Inhibitors of LTβR-NFκB signaling pathways for treating inflammation and cancer” (University of Maryland, Baltimore, priority 2017, dated 2023).
No end group written: not given here.

How the values were obtained:
Type in all cases: cell-based, mouse
LEC = assay: MTT viability assay; conditions: 20 μM peptides, without or with anti-LTβR mAb
Description: LECs were plated into 24-well tissue culture plates, incubated overnight, and treated with 20 μM peptides with or without agonist anti-LTβR (2 μg/mL) for 4 hours, followed by 3 hour incubation with 0.5 mg/mL MTT (3-(4, 5-Dimethylthiazol-2-yl)-2, 5 diphenyl tetrazolium bromide) (Sigma-Aldrich). 50 μL DMSO was added to cells before reading OD at 540 nm.

[1] = test system: LTβR-mediated non-classical NFκB (NIK) signaling in LEC and SVEC4-10; assay: Immunoblot of non-classical NFκB (NIK) signaling after LTβR activation
Description: (§1) LECs were lysed in buffer containing 20 mM HEPES (pH 7.4), 150 mM NaCl, 10 mM NaF, 2 mM Na3VO4, 1 mM EDTA, 1 mM EGTA, 0.5% Triton X-100, 0.1 mM DTT, 1 mM PMSF and protease inhibitor cocktail (Roche, Indianapolis, Ind.). Protein in the cell extract was quantified using protein quantification kit (Bio-Rad, Philadelphia, Pa.) and 10 μg total protein was run on Novex™ WedgeWell™ 4-20% Tris-Glycine Mini Gels (Invitrogen) and transferred to an Immobilon-P membrane (Bio-Rad). Membranes were probed with anti-NF-κB2 p100/p52, NIK, phospho-IKKα/β(Ser176/180) (16A6), IκBα, TRAF2, TRAF3, and GAPDH antibodies. For co-IP assays, 500 μg total protein of cell extract was incubated with 1 μg of anti-mLTβR (5G11b) overnight, followed by 4 hour incubation with 25 μL protein G Agarose beads (Sigma-Aldrich). The beads were then washed with lysis buffer and boiled in 2× Laemmli sample buffer (Bio-Rad).

[2] = test system: LTβR complex (TRAF2, TRAF3); assay: Co-immunoprecipitation of LTβR complex with anti-LTβR; conditions: LEC pretreated, then anti-LTβR mAb for 10 minutes
Description: as §1

[3] = test system: LTβR-induced chemokines and cell adhesion molecules in LEC and SVEC4-10; assay: LTβR-induced chemokine and adhesion molecule expression (qRT-PCR, ELISA, flow cytometry, immunohistochemistry); conditions: LEC or SVEC4-10, anti-LTβR mAb (plus CL), peptides 20 μM; for LTβR-induced CCL2 expression/production: NIKi 50 μM, BAY11 25 μM
Description: LECs in PBS containing 0.2 mM calcium, 0.1 mM magnesium and 0.5% w/v BSA were treated with anti-CD16/32 (clone 93, eBioscience) to block Fc receptors, and then stained with antibodies to cell surface molecules in the same buffer. Flow cytometry antibodies used were: APC-eflour780-anti-mouse CD4 (GK1.5, eBioscience); PE-anti-mouse CD25 (PC61.5, eBioscience); APC-anti-mouse VCAM-1 (clone 647, eBioscience). For detection of LTα2β1, T cells were incubated with MOPC21 or LTβRIg at 2 μg/mL for 60 minutes at 37° C. in HBSS with 2% FBS. Cells were washed, and then stained for 45 minutes at 4° C. with BV421-rat anti-mouse IgG1 along with antibodies to other cell surface markers. Cells were then washed and fixed with 4% paraformaldehyde and run on an LSR Fortessa flow cytometer (BD Biosciences, San Jose, Calif.). Results were analyzed with software FlowJo 8.7 (Treestar).
(§2) One μg of total RNA extracted using Trizol reagent (Invitrogen) was reverse-transcribed into cDNA with GoScript™ Reverse Transcription System (Promega, Fitchburg, Wis.). mRNA expression levels were quantified by real-time PCR using SYBR Green Master Mix with an ABI Prism 7900HT (Applied Biosystems, Foster City, Calif.). Values for specific gene expression were normalized to house-keeping HPRT gene expression and were calculated as: 2^(Ct of HPRT-Ct specific gene). For the microarrays, total RNA of treated mLECs was extracted with RNeasy mini kit (Qiagen, Germantown, Md.) and analyzed for purity and integrity by capillary electrophoresis on an Agilent Bioanalyzer 2100 (Agilent Technologies, Inc. Santa Clara, Calif.). 100 ng/sample was subjected to amplification, followed by labeling and hybridization to Mouse Genome 430 2.0 GeneChips (Affymetrix, Santa Clara, Calif.). Sample amplification, labeling, hybridization, and detection were performed according to the manufacturer's protocols.
5×10^5 LECs or SVEC4-10 cells were plated in 12-well plates and treated with 20 μM peptides for 30 minutes at 37° C. Cells were then washed and incubated with anti-LTβR agonistic mAb (2 μg/mL) for 30 minutes at 4° C., followed by washing and then cross-linking with anti-rat IgG (2 μg/mL) for 6 or 16 hours at 37° C. The supernatants were collected and stored in −80° C. Mouse CCL2 and CCL21 were measured with ELISA kits from Biolegend, Inc. and R&D Systems (Minneapolis, Minn.), respectively.
(§3) LEC monolayers were stained for surface VCAM-1, LTβR or Lyve-1 with rat anti-mouse VCAM-1 (Clone 429, eBioscience), rat anti-mouse LTβR (Clone 3C8, eBioscience) or rabbit anti-mouse Lyve-1 (70R-LR003, Fitzgerald, Acton, Mass.), then were fixed for 20 minutes at 4° C. with 4% (w/v) paraformaldehyde (Affymetrix), permeabilized with PBS 0.2% (v/v) Triton X-100 (Sigma-Aldrich), and treated with 2% donkey serum for 10 minutes then incubated with rabbit anti-mouse CXCL12 (eBioscience), goat-anti-mouse CCL21 (Clone AF457, R&D System), or anti-NIK mouse monoclonal antibody (Clone A-12, Santa Cruz Biotechnology) overnight at 4° C. The primary antibodies were detected with Alexa Fluor […], 647 (Cy5), or 546 (Cy3)-conjugated donkey anti-goat, donkey anti-rabbit, or donkey anti-rat secondary antibodies (Jackson ImmunoResearch, West Grove, Pa.) for 1 hour at 4° C. Transwell membranes were transferred onto glass slides and visualized by fluorescent microscopy (Zeiss LSM 510 Meta, and LSMS Duo) with a ×60 or ×20 objective. Images were analyzed with Volocity version 6.3 software.

[4] = test system: LTβR-NIK signaling in LEC and SVEC4-10; assay: Immunohistochemistry of LTβR, NIK and RelB in LEC and SVEC4-10; conditions: anti-LTβR for 6 hours
Description: as §3

[5] = test system: classical NFκB signaling in LEC; assay: Immunoblot of classical NFκB signaling (IKKα/β phosphorylation, IκBα degradation); conditions: 2 μg/mL anti-LTβR mAb or 20 ng/mL TNFα
Description: as §1

[6] = test system: TNFR1-mediated VCAM-1 expression in LEC; assay: TNFα-stimulated VCAM-1 expression in LEC (qRT-PCR); conditions: LEC stimulated with TNFα for 1 hour
Description: as §2

[7] = pretreated with peptides or inhibitors, then anti-LTβR for 6 hours

| Compound | LEC viability (MTT) (LEC) | TRAF2 degradation [1, 7] | TRAF2 recruitment to the LTβR complex [2] | TRAF3 recruitment to the LTβR complex [2] | LTβR-induced VCAM-1 expression [3] | LTβR-induced CCL2 expression/production [3] | NIK expression and co-localization with LTβR [4] | other results |
| --- | --- | --- | --- | --- | --- | --- | --- | --- |
| RQIKIWFQNRRMKWKKTGNIYIYNGPVL [nciLT] | did not affect | – | – | – | – | – | – | – |
| CN[C@@H](C)C(=O)N[C@H]1CN(C(=O)CC(C)C)CC[C@H]2CC[C@@H](C(=O)NC(c3ccccc3)c3ccccc3)N2C1=O [AT406] | – | – | – | – | – | – | – | LTβR-mediated NIK accumulation and p100 processing ([1]; LEC and SVEC4-10, anti-LTβR mAb, 25 μM AT406): promoted more LTβR-mediated NIK accumulation and p100 processing |
| O=C1Cc2ccccc2C(=O)N1 [NIKi, 4H-isoquinoline-1,3-dione] | – | inhibited TRAF2 degradation | blocked | blocked | did not affect | partial inhibitory effect | neither ciLT, BAY11-7085, nor NIKi affected | p100 processing to p52 [1, 7]: prevented; LTβR-induced CCL21 transcription and production [3]: inhibited |
| TNFα | – | – | – | – | – | – | – | early classical NFκB activation (IKKα/β phosphorylation, IκBα degradation) [5]: induced strong IKKα/β phosphorylation and IκBα degradation |
| CC(C)(C)c1ccc(S(=O)(=O)/C=C/C#N)cc1 [BAY11-7085] | – | not BAY11-7085 also prevented | not BAY11-7085 was sufficient to inhibit | not BAY11-7085 was sufficient to inhibit | suppressed | suppressed | neither ciLT, BAY11-7085, nor NIKi affected | TNFR1-mediated VCAM-1 expression [6]: significantly inhibited |
| RQIKIWFQNRRMKWKKPEEGAPGP [ciLT] | did not affect | – | – | – | – | – | – | – |
